Laboratory results taken from patent US4725683A, “Fluorophenoxyphenoxypropionates and derivatives thereof” (The Dow Chemical Company, priority 1985, dated 1988).
Like-named read-outs stand apart in the source and are kept apart here.

Key:
Type in all cases: in vivo
[1] = test system: Barnyard Grass; assay: Postemergent activity
Method: (§1) Representative compositions of the present invention were evaluated for the postemergence control of species of plants listed in Table A. In these evaluations, pots of the plant species listed in Table A, grown to a height of about 10 cms, were used. Aqueous spray compositions, containing various amounts of 2-[4-(2-fluoro-4-trifluoromethylphenoxy)-phenoxy]propionic acid methy ester, i.e., 125 ppm, 62.5 ppm, 31.25 ppm, 15.6 ppm, 7.8 ppm and 3.9 ppm, respectively, were applied to separate pots. The spray compositions were made by mixing the active ingredient in acetone to 1/2 the final volume, i.e., twice the final concentration. An equal amount of water was added to the active ingredient/acetone mixture wherein the water contained 0.1 percent by weight of TWEEN® 200 surfactant. The application to the plants was made to the point of run-off and was carried out with conventional spraying equipment. Other pots were sprayed with similar compositions containing no toxicant to serve as controls. Thereafter, the pots were maintained under conditions conducive for plant growth. Two weeks after treatment, the pots were examined for plant growth and evaluated on a scale of 0 to 100 where 0 represents no effect and 100 represents complete kill. The results of the examination of the treated pots are set forth below in Table A.
(§2) Substantially the same procedures as those described in Example A were repeated except that the active ingredients were 2-[4-(4-chloro-2-fluorophenoxy)phenoxy]propionic acid; methyl ester and its R-enantiomer and 2-(4-(4-bromo-2-fluorophenoxy)phenoxy propionic acid; methyl ester and its R enantiomer. The results are listed below in Table B.
(§3) In further operations employing the above general procedures and the indicated test compounds the following results were obtained: […]

[2] = test system: Wheat; assay: Postemergent activity; details: Triticum aestivum, post-emergence, 336 h, read-out: % Control
Method: as §1, §2, §3

[3] = test system: Wild Oats; assay: Postemergent activity; details: Avena fatua, post-emergence, 336 h, read-out: % Control
Method: as §1, §2, §3

[4] = test system: Crabgrass; assay: Postemergent activity
Method: as §1, §2, §3

[5] = test system: Johnson Grass; assay: Postemergent activity
Method: as §1

[6] = test system: Barnyard Grass; assay: Preemergent activity; details: Echinochloa crus-galli, pre-emergence, read-out: Preemergence Control; for pest or weed control at 140 g/ha: 0.14 kgs/hectare; for pest or weed control at 280 g/ha: 0.28 kgs/hectare; for pest or weed control at 560 g/ha: 0.56 kgs/hectare; for pest or weed control at 1120 g/ha: 1.12 kgs/hectare
Procedure, shortened: (§4)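 Test compound was applied in acetone mixed with an equal volume of water containing 0.1% Tween-20, sprayed preemergence onto seed beds of sandy loam soil sown with the test species. Beds were kept under identical temperature and light. A solvent-only spray served as control.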

[7] = test system: Johnson Grass; assay: Preemergent activity; details: Sorghum halepense, pre-emergence, read-out: Preemergence Control; for pest or weed control at 70 g/ha: 0.07 kgs/hectare; for pest or weed control at 140 g/ha: 0.14 kgs/hectare; for pest or weed control at 280 g/ha: 0.28 kgs/hectare; for pest or weed control at 560 g/ha: 0.56 kgs/hectare; for pest or weed control at 1120 g/ha: 1.12 kgs/hectare
Procedure, shortened: as §4

[8] = test system: Yellow Foxtail; assay: Preemergent activity; details: Setaria, pre-emergence, read-out: Preemergence Control; for pest or weed control at 70 g/ha: 0.07 kgs/hectare; for pest or weed control at 140 g/ha: 0.14 kgs/hectare; for pest or weed control at 280 g/ha: 0.28 kgs/hectare; for pest or weed control at 560 g/ha: 0.56 kgs/hectare; for pest or weed control at 1120 g/ha: 1.12 kgs/hectare
Procedure, shortened: as §4

[9] = test system: Wheat; assay: Preemergent activity; details: Triticum aestivum, pre-emergence, read-out: Preemergence Control; for plant injury at 70 g/ha: 0.07 kgs/hectare; for plant injury at 140 g/ha: 0.14 kgs/hectare; for plant injury at 280 g/ha: 0.28 kgs/hectare; for plant injury at 560 g/ha: 0.56 kgs/hectare; for plant injury at 1120 g/ha: 1.12 kgs/hectare
Procedure, shortened: as §4

[10] = test system: Wild Oats; assay: Preemergent activity; details: Avena fatua, pre-emergence, read-out: Preemergence Control; for pest or weed control at 70 g/ha: 0.07 kgs/hectare; for pest or weed control at 140 g/ha: 0.14 kgs/hectare; for pest or weed control at 280 g/ha: 0.28 kgs/hectare; for pest or weed control at 560 g/ha: 0.56 kgs/hectare; for pest or weed control at 1120 g/ha: 1.12 kgs/hectare
Procedure, shortened: as §4

[11] = test system: Yellow Foxtail; assay: Postemergent activity
Method: (§5) Representative compositions of the present invention were evaluated for the postemergence control of species of plants listed in Table A. In these evaluations, pots of the plant species listed in Table A, grown to a height of about 10 cms, were used. […] The spray compositions were made by mixing the active ingredient in acetone to 1/2 the final volume, i.e., twice the final concentration. An equal amount of water was added to the active ingredient/acetone mixture wherein the water contained 0.1 percent by weight of TWEEN® 200 surfactant. The application to the plants was made to the point of run-off and was carried out with conventional spraying equipment. […] Thereafter, the pots were maintained under conditions conducive for plant growth.

[12] = test system: Crabgrass; assay: Preemergent activity
Procedure, shortened: as §4

[13] = test system: Barley; assay: Postemergent activity
Method: as §5

[14] = test system: Cheatgrass; assay: Postemergent activity
Method: as §5

[15] = test system: Green Foxtail; assay: Postemergent activity
Method: as §5

[16] = test system: Blackgrass; assay: Postemergent activity
Method: as §5

COC(=O)C(C)Oc1ccc(Oc2ccc(I)cc2F)cc1 (stereo not shown) [2-(4-(2-fluoro-4-iodophenoxy)phenoxy)propionic acid methyl ester]
% Control ([1]; 15.6 ppm): 10% | % Control ([1]; 31.25 ppm): 85% | % Control ([1]; 62.5 ppm): 100% | % Control ([1]; 125 ppm): 100% | plant injury at 15.6 ppm ([2]; 15.6 ppm): 0% | plant injury at 31.25 ppm ([2]; 31.25 ppm): 0% | plant injury at 62.5 ppm ([2]; 62.5 ppm): 0% | plant injury at 125 ppm ([2]; 125 ppm): 0% | pest or weed control at 15.6 ppm ([3]; 15.6 ppm): 0% | pest or weed control at 31.25 ppm ([3]; 31.25 ppm): 0% | pest or weed control at 62.5 ppm ([3]; 62.5 ppm): 0% | pest or weed control at 125 ppm ([3]; 125 ppm): 0% | % Control ([4]; 15.6 ppm): 100% | % Control ([4]; 31.25 ppm): 100% | % Control ([4]; 62.5 ppm): 100% | % Control ([4]; 125 ppm): 100% | % Control ([5]; 15.6 ppm): 90% | % Control ([5]; 31.25 ppm): 100% | % Control ([5]; 62.5 ppm): 100% | % Control ([5]; 125 ppm): 100% | pest or weed control at 140 g/ha [6]: 50% | pest or weed control at 280 g/ha [6]: 100% | pest or weed control at 560 g/ha [6]: 97% | pest or weed control at 1120 g/ha [6]: 100% | pest or weed control at 70 g/ha [7]: 0% | pest or weed control at 140 g/ha [7]: 0% | pest or weed control at 280 g/ha [7]: 60% | pest or weed control at 560 g/ha [7]: 99% | pest or weed control at 1120 g/ha [7]: 100% | pest or weed control at 70 g/ha [8]: 0% | pest or weed control at 140 g/ha [8]: 0% | pest or weed control at 280 g/ha [8]: 20% | pest or weed control at 560 g/ha [8]: 100% | pest or weed control at 1120 g/ha [8]: 100% | plant injury at 70 g/ha [9]: 0% | plant injury at 140 g/ha [9]: 0% | plant injury at 280 g/ha [9]: 0% | plant injury at 560 g/ha [9]: 20% | plant injury at 1120 g/ha [9]: 20% | pest or weed control at 70 g/ha [10]: 0% | pest or weed control at 140 g/ha [10]: 0% | pest or weed control at 280 g/ha [10]: 0% | pest or weed control at 560 g/ha [10]: 95% | pest or weed control at 1120 g/ha [10]: 99% | % Control ([11]; 15.6 ppm): 90% | % Control ([11]; 31.25 ppm): 100% | % Control ([11]; 62.5 ppm): 100% | % Control ([11]; 125 ppm): 100%

COC(=O)[C@@H](C)Oc1ccc(Oc2ccc(Cl)cc2F)cc1 [4-Chloro-(R-Enantiomer), R enantiomer of 2-[4-(4-chloro-2-fluorophenoxy)phenoxy]propionic acid methyl ester]
plant injury at 7.8 ppm [2]: 0% | plant injury at 15.6 ppm [2]: 0% | plant injury at 31.25 ppm [2]: 0% | plant injury at 62.5 ppm [2]: 70% | plant injury at 125 ppm [2]: 60% | pest or weed control at 7.8 ppm [3]: 40% | pest or weed control at 15.6 ppm [3]: 80% | pest or weed control at 31.25 ppm [3]: 100% | pest or weed control at 62.5 ppm [3]: 100% | pest or weed control at 125 ppm [3]: 100% | pest or weed control at 70 g/ha ([6]; 0.07 kgs/hectare): 0% | pest or weed control at 140 g/ha [6]: 10% | pest or weed control at 280 g/ha [6]: 98% | pest or weed control at 560 g/ha [6]: 100% | pest or weed control at 1120 g/ha [6]: 100% | pest or weed control at 70 g/ha [7]: 0% | pest or weed control at 140 g/ha [7]: 0% | pest or weed control at 280 g/ha [7]: 80% | pest or weed control at 560 g/ha [7]: 95% | pest or weed control at 1120 g/ha [7]: 98% | pest or weed control at 70 g/ha [8]: 0% | pest or weed control at 140 g/ha [8]: 0% | pest or weed control at 280 g/ha [8]: 30% | pest or weed control at 560 g/ha [8]: 95% | pest or weed control at 1120 g/ha [8]: 98% | plant injury at 70 g/ha [9]: 0% | plant injury at 140 g/ha [9]: 0% | plant injury at 280 g/ha [9]: 0% | plant injury at 560 g/ha [9]: 10% | plant injury at 1120 g/ha [9]: 20% | pest or weed control at 70 g/ha [10]: 0% | pest or weed control at 140 g/ha [10]: 0% | pest or weed control at 280 g/ha [10]: 0% | pest or weed control at 560 g/ha [10]: 60% | pest or weed control at 1120 g/ha [10]: 80% | Preemergence Control ([12]; 0.07 kgs/hectare): 70% | Preemergence Control ([12]; 0.14 kgs/hectare): 98% | Preemergence Control ([12]; 0.28 kgs/hectare): 100% | Preemergence Control ([12]; 0.56 kgs/hectare): 100% | Preemergence Control ([12]; 1.12 kgs/hectare): 100% | % Control ([13]; 7.8 ppm): 0% | % Control ([13]; 15.6 ppm): 0% | % Control ([13]; 31.25 ppm): 0% | % Control ([13]; 62.5 ppm): 0% | % Control ([13]; 125 ppm): 40% | % Control ([14]; 0.4 ppm): 0% | % Control ([14]; 0.8 ppm): 0% | % Control ([14]; 1.6 ppm): 0% | % Control ([14]; 3.2 ppm): 0% | % Control ([14]; 6.3 ppm): 0% | % Control ([14]; 12.5 ppm): 0% | % Control ([14]; 25 ppm): 0% | % Control ([15]; 0.4 ppm): 0% | % Control ([15]; 0.8 ppm): 80% | % Control ([15]; 1.6 ppm): 100% | % Control ([15]; 3.2 ppm): 100% | % Control ([15]; 6.3 ppm): 100% | % Control ([15]; 12.5 ppm): 100% | % Control ([15]; 25 ppm): 100% | % Control ([16]; 0.4 ppm): 0% | % Control ([16]; 0.8 ppm): 40% | % Control ([16]; 1.6 ppm): 80% | % Control ([16]; 3.2 ppm): 90% | % Control ([16]; 6.3 ppm): 95% | % Control ([16]; 12.5 ppm): 100% | % Control ([16]; 25 ppm): 100% | % Control ([11]; 0.4 ppm): 0% | % Control ([11]; 0.8 ppm): 0% | % Control ([11]; 1.6 ppm): 0% | % Control ([11]; 3.2 ppm): 40% | % Control ([11]; 6.3 ppm): 60% | % Control ([11]; 12.5 ppm): 100% | % Control ([11]; 25 ppm): 100%
